Results: patent US11001570B2, “6-amino-quinolinone compounds and derivatives as BCL6 inhibitors” (Boehringer Ingelheim International GmbH, priority 2016, dated 2021)

Biological target: T1, BCL6::BCOR (Homo sapiens, UniProt P41182, C67R/C84N/C8Q)
T1 construct: BCL6 (amino acids 5 to 129, with the following changes to the natural protein); made in house; host or cells: E. coli
Test: BCL6::BCOR ULight TR-FRET assay
Assay type: binding
From the text: Biological Methods BCL6::BCOR ULight TR-FRET Assay:
Biotinylated BCL6 protein corresponding to BCL6 (amino acids 5 to 129, with the following changes to the natural protein: C8Q, C67R, C84N) is expressed in E. coli with a carboxy-terminal Avi tag (amino acid sequence […]). The BCOR ULight peptide uses a direct carboxy-terminal ULight tag (PerkinElmer). The sequence of the peptide is CRSEIISTAPSSWVVPGP, with the amino terminus acetylated and the ULight tag attached to the cysteine. Compounds are dispensed onto assay plates (Proxiplate 384 PLUS, white, PerkinElmer) using an Access Labcyte Workstation with the Labcyte Echo 55×from a DMSO solution. For the chosen highest assay concentration of 100 μM, 150 nl of compound solution are transferred from a 10 mM DMSO compound stock solution. A series of 11 concentrations is transferred for each compound at which each concentration is fivefold lower than the previous one. DMSO is added such that every well has a total of 150 nl compound solution. 5 μL of 1 nM BCL6 protein in assay buffer (50 mM HEPES pH 7.3; 125 mM NaCl; 1 mM GSH; 0.01% Triton-X 100; 0.03% BSA) are added to the 150 nl of compounds. After 30 minutes incubation time at room temperature, 10 μL of a mix containing BCOR ULight peptide (100 nM final assay concentration) and Streptavidin-Europium (0.75 nM final assay concentration) are added. Plates are kept at room temperature. After 240 minutes incubation time the TR-FRET signal is measured in a PerkinElmer Envision HTS Multilabel Reader using the TR-FRET LANCE Ultra specs of PerkinElmer. Each plate contains negative controls (diluted DMSO instead of test compound; BCOR peptide and Streptavidin Europium mix with BCL6 protein) and positive controls (diluted DMSO instead of test compound; BCOR peptide and Streptavidin-Europium mix without BCL6 protein). Negative and positive control values are used for normalization.

| IC50 [nM] | Structure (SMILES) |
| --- | --- |
| 10 | CNC(=O)COc1cc2cc(Nc3nc(N4CCC(F)CC4)ncc3F)ccc2n(C)c1=O [Compound I-22] |
| 187 | C[C@@H]1C[C@H](C)CN(c2ncc(Cl)c(Nc3ccc4c(c3)cc(OCP(C)(C)=O)c(=O)n4C)n2)C1 [Compound I-172, 6-({5-chloro-2-[cis-3,5-dimethylpiperidin-1-yl]pyrimidin-4-yl}amino)-3-[(dimethylphosphoryl)-methoxy]-1-methyl-1,2-dihydroquinolin-2-one] |
| 12 | C[C@@H]1C[C@H](C)CN(c2ncc(F)c(Nc3ccc4c(c3)cc(OCC(=O)O)c(=O)n4C)n2)C1 [Compound I-100] |
| 9 | CNC(=O)COc1cc2cc(Nc3nc(N4CCC(N5CCCCC5)CC4)ncc3Cl)ccc2n(C)c1=O [Compound I-42] |
| 7 | CNC(=O)COc1cc2cc(Nc3nc(N4CCO[C@H](C)C4)ncc3Cl)ccc2n(C)c1=O [Compound I-52] |
| 13 | CC1CCCN(c2ncc(Cl)c(Nc3ccc4c(c3)cc(OCC(=O)O)c(=O)n4C)n2)C1 (stereo not drawn) [Compound I-119] |
| 2 | CNC(=O)COc1cc2cc(Nc3nc(N4CCC(C(=O)O)CC4)ncc3Cl)cc(OC)c2n(C)c1=O [Compound I-94] |
| 12 | CNC(=O)COc1cc2cc(Nc3nc(-n4nc(C)cc4C)ncc3Cl)ccc2n(C)c1=O [Compound I-149, 2-[(6-{[5-chloro-2-(3,5-dimethyl-1H-pyrazol-1-yl)pyrimidin-4-yl]amino}-1-methyl-2-oxo-1,2-dihydroquinolin-3-yl)oxy]-N-methylacetamide] |
| 29 | C[C@@H]1C[C@H](C)CN(c2ncc(Cl)c(Nc3ccc4c(c3)cc(OCC(=O)N(C)C)c(=O)n4C)n2)C1 [Compound I-133, 2-{[6-({5-chloro-2-[cis-3,5-dimethyl-piperidin-1-yl]pyrimidin-4-yl}amino)-1-methyl-2-oxo-1,2-dihydroquinolin-3-yl]oxy}-N,N-dimethylacetamide] |
| 7 | CCn1c(=O)c(OCC(=O)NC)cc2cc(Nc3nc(-n4nc(C)cc4C)ncc3Cl)ccc21 [Compound I-160] |
| 4 | CNC(=O)COc1cc2cc(Nc3nc(N4CCC(C(=O)O)CC4)ncc3Cl)ccc2n(C(C)C)c1=O [Compound I-82] |
| 5 | CCn1c(=O)c(OCC(=O)NC)cc2cc(Nc3nc(N4CCC(C(=O)N(C)C)CC4)ncc3Cl)ccc21 [Compound I-161] |
| 7 | Cn1c(=O)c(OCC(=O)O)cc2cc(Nc3nc(N4CCC(C(=O)O)CC4)ncc3Cl)ccc21 [Compound I-102] |
| 7 | CNC(=O)COc1cc2cc(Nc3nc(N4CC(C)NC(CF)C4)ncc3Cl)ccc2n(C)c1=O (stereo not drawn) [Compound I-12, 2-{[6-({5-chloro-2-[3-(fluoromethyl)-5-methylpiperazin-1 yl]pyrimidin-4-yl}amino)-1-methyl-2-oxo-1,2-dihydroquinolin-3-yl]oxy}-N-methylacetamide] |
| 41 | CNC(=O)COc1cc2cc(Nc3nc(N4C[C@H](CO)N[C@H](C)C4)ncc3Cl)ccc2n(C)c1=O [Compound I-9, 2-{[6-({5-chloro-2-[(3R,5R)-3-(hydroxymethyl)-5-methylpiperazin-1-yl]pyrimidin-4-yl}amino)-1-methyl-2-oxo-1,2-dihydroquinolin-3-yl]oxy}-N-methylacetamide] |
| 12 | CNC(=O)COc1cc2cc(Nc3nc(N4CCCC(F)CC4)ncc3F)ccc2n(C)c1=O (stereo not drawn) [Compound I-21] |
| 5 | CNC(=O)COc1cc2cc(Nc3nc(N4C[C@H]5CC[C@@H](C4)O5)ncc3Cl)ccc2n(C)c1=O [Compound I-7, 2-({6-[(5-chloro-2-{8-oxa-3-azabicyclo[3.2.1]octan-3-yl}pyrimidin-4-yl)amino]-1-methyl-2-oxo-1,2-dihydroquinolin-3-yl}oxy)-N-methylacetamide] |
| 13 | CNC(=O)COc1cc2cc(Nc3nc(N4C[C@@H](CO)N[C@@H](C)C4)ncc3Cl)ccc2n(C)c1=O (single isomer, unassigned) [Compound I-11] |
| 2 | CNC(=O)COc1cc2cc(Nc3nc(N4CCC[C@H](C(=O)O)C4)ncc3Cl)cc(OC)c2n(C)c1=O [Compound I-96] |
| 5 | CNC(=O)COc1cc2cc(Nc3nc(N4CCC[C@H](C)C4)ncc3Cl)ccc2n(C)c1=O [Compound I-66] |
| 16 | Cn1c(=O)c(OCC(=O)O)cc2cc(Nc3nc(N4CCCC(F)(F)CC4)ncc3Cl)ccc21 [Compound I-118] |
| 6 | CNC(=O)COc1cc2cc(Nc3nc(N4CCN(CCN(C)C)CC4)ncc3Cl)ccc2n(C)c1=O [Compound I-20] |
| 19 | CNC(=O)COc1cc2cc(Nc3nc(N4CCC(C(=O)N(C)C)CC4)ncc3Cl)c(F)cc2n(C)c1=O [Compound I-156] |
| 11 | CNC(=O)COc1cc2cc(Nc3nc(N4CCN(C)C(C)(C)C4)ncc3Cl)ccc2n(C)c1=O [Compound I-49] |

| IC50 [nM] | Structure (SMILES) |
| --- | --- |
| 16 | CNC(=O)COc1cc2cc(Nc3nc(-n4nc(C(=O)N5CCN(C)CC5)cc4C)ncc3Cl)ccc2n(C)c1=O [Compound I-166, 2-{[6-({5-chloro-2-[5-methyl-3-(4-methylpiperazine-1-carbonyl)-1H-pyrazol-1-yl]pyrimidin-4-yl}amino)-1-methyl-2-oxo-1,2-dihydroquinolin-3-yl]oxy}-N-methylacetamide] |
| 9 | CNC(=O)COc1cc2cc(Nc3nc(N4CCC(F)(F)CC4)ncc3Cl)ccc2n(C(C)C)c1=O [Compound I-85] |
| 5 | Cn1c(=O)c(OCC(=O)O)cc2cc(Nc3nc(N4CCC(F)CC4)ncc3Cl)ccc21 [Compound I-132, 2-[(6-{[5-chloro-2-(4-fluoropiperidin-1-yl)pyrimidin-4-yl]amino}-1-methyl-2-oxo-1,2-dihydro-quinolin-3-yl)oxy]acetic acid] |
| 5 | CNC(=O)COc1cc2cc(Nc3nc(N4CCC(O)(C(F)(F)F)CC4)ncc3Cl)ccc2n(C)c1=O [Compound I-32] |
| 6 | CNC(=O)COc1cc2cc(Nc3nc(N4CCC(CCN5CCCCC5)CC4)ncc3Cl)ccc2n(C)c1=O [Compound I-43] |
| 82 | C[C@@H]1C[C@H](C)CN(c2ncc(Cl)c(Nc3ccc4c(c3)cc(O[C@H](C)C(=O)O)c(=O)n4C)n2)C1 (relative stereo) [Compound I-154] |
| 269 | C[C@@H]1C[C@H](C)CN(c2ncc(Cl)c(Nc3ccc4c(c3)cc(OCC(=O)NCC(O)C(F)(F)F)c(=O)n4C)n2)C1 (stereo partly drawn) [Compound I-136] |
| 12 | CNC(=O)COc1cc2cc(Nc3nc(N4CCC(C(=O)N(C)C)CC4)ncc3F)ccc2n(C)c1=O [Compound I-28] |
| 5 | CNC(=O)COc1cc2cc(Nc3nc(N4CCCC(F)CC4)ncc3Cl)ccc2n(C)c1=O (stereo not drawn) [Compound I-55] |
| 8 | CNC(=O)COc1cc2cc(Nc3nc(N4CCCC[C@H]4C)ncc3Cl)ccc2n(C)c1=O [Compound I-17] |
| 7 | CNC(=O)COc1cc2cc(Nc3nc(N4CCc5cnn(C)c5C4)ncc3Cl)ccc2n(C)c1=O [Compound I-68] |
| 5 | CCn1c(=O)c(OCC(=O)NC)cc2cc(Nc3nc(N4CCC(F)CC4)ncc3Cl)ccc21 [Compound I-75] |
| 15 | CNC(=O)COc1cc2cc(Nc3nc(N4C[C@H](C)C[C@H](C)C4)ncc3Cl)ccc2n(CC2CC2)c1=O [Compound I-87] |
| 9 | CNC(=O)COc1cc2cc(Nc3nc(N4C[C@H](C)C[C@H](C)C4)ncc3Cl)cnc2n(C)c1=O [Compound I-155] |
| 7 | CCCN(CCC)CCC1CCN(c2ncc(Cl)c(Nc3ccc4c(c3)cc(OCC(=O)NC)c(=O)n4C)n2)CC1 [Compound I-128] |
| 4 | CNC(=O)COc1cc2cc(Nc3nc(N4CCC(C(=O)O)CC4)ncc3Cl)ccc2n(C)c1=O [Compound I-62] |
| 5 | CCn1c(=O)c(OCC(=O)NC)cc2cc(Nc3nc(N4CCC(F)(F)CC4)ncc3Cl)ccc21 [Compound I-76] |
| 17 | COCCN1CCN(c2ncc(Cl)c(Nc3ccc4c(c3)cc(OCC(=O)O)c(=O)n4C)n2)CC1C (stereo not drawn) [Compound I-110] |
| 8 | CNC(=O)COc1cc2cc(Nc3nc(N4CCC(N5CCCC5)CC4)ncc3Cl)ccc2n(C)c1=O [Compound I-41] |
| 3 | CNC(=O)COc1cc2cc(Nc3nc(N4C[C@H](C)C[C@H](C)C4)ncc3Cl)ccc2n(C)c1=O [Compound I-4, 2-[(6-{[5-chloro-2-(cis-3,5-dimethylpiperidin-1-yl)pyrimidin-4-yl]amino}-1-methyl-2-oxo-1,2-dihydro-quinolin-3-yl)oxy]-N-methylacetamide] |
| 114 | Cn1c(=O)c(OCC(=O)O)cc2cc(Nc3nc(N4CCCN(c5ccccc5)CC4)ncc3Cl)ccc21 [Compound I-105] |
| 21 | Cn1c(=O)c(OCC(=O)O)cc2cc(Nc3nc(N4CCC(c5ccccc5)CC4)ncc3Cl)ccc21 [Compound I-109] |
| 4 | CNC(=O)COc1cc2cc(Nc3nc(N4CCC(F)CC4)ncc3Cl)ccc2n(C)c1=O [Compound I-25] |
| 98 | CNC(=O)[C@@H](C)Oc1cc2cc(Nc3nc(N4CCC(C(=O)N(C)C)CC4)ncc3Cl)ccc2n(C)c1=O [Compound I-162] |
